In patent US12180304B2 (Zhejiang University, priority 2020, dated 2024):

Target: T1, intact recombinant antibody against clothianidin and dinotefuran (Mus musculus, UniProt P01837+P01868)
T1 construct: The heavy and light chain variable region genes were ligated to linearized expression vectors pCDNA3.4-Mouse-IgG1 and pCDNA3.4-Mouse-Kappa; mouse IgG1 heavy chain constant region (fusion partner); mouse kappa light chain constant region (fusion partner); made in house; host or cells: HEK293F cells, double-plasmid transfection, Protein A purification
Experiment: heterologous indirect competitive ELISA (thiacloprid-OVA coating antigen)
Type: binding
Protocol: In the early stage of preparation of parental ascitic monoclonal antibodies, a difference in sensitivity was compared between the homologous indirect competitive ELISA (coating antigen was clothianidin-OVA) and the heterologous indirect ELISA (coating antigens were thiacloprid-OVA and imidaclothiz-OVA).
In the present disclosure, the specificity of the antibody was evaluated by detecting the cross-reactivity with eight common neonicotinoid insecticides.

SMILES | linear range (IC20 to IC80)
CN/C(=N\[N+](=O)[O-])NCc1cnc(Cl)s1 [clothianidin] | 1.08 to 15.06 ng/mL
CN/C(=N/CC1CCOC1)N[N+](=O)[O-] (centres unmarked) [dinotefuran] | 3.78 to 30.03 ng/mL
